The term EC50 denotes the concentration at which the effect is half-maximal.

Like-named read-outs stand apart in the source and are kept apart here. Numbered stars: 1 amine (or outer) side, 2 acyl side, 3 side chain; on linkers, the order of the positions; unused ones are H or OH. Square brackets hold non-standard residues; d marks the D form. Side chains are listed from the residue outwards. Ends that are not written are not given here. Peptide text beside a SMILES is read from it. * marks the point of attachment. γGlu = O=C(O)[C@H](CCC(=O)[*:2])N[*:1]; Palmitoyl = CCCCCCCCCCCCCCCC(=O)*; AEEA = NCCOCCOCC(=O)O

Six compounds from patent US10406207B2, “Peptide conjugates of GLP-1 receptor agonists and gastrin and their use” (priority 2010, dated 2019) can be followed below.

Common to all, as to format: cell-based
One assay concerns the target T1, human CCK-B R (Homo sapiens, UniProt P32239).
T1 construct: expressed in transfected cells
T1 sequence (P32239 1-447): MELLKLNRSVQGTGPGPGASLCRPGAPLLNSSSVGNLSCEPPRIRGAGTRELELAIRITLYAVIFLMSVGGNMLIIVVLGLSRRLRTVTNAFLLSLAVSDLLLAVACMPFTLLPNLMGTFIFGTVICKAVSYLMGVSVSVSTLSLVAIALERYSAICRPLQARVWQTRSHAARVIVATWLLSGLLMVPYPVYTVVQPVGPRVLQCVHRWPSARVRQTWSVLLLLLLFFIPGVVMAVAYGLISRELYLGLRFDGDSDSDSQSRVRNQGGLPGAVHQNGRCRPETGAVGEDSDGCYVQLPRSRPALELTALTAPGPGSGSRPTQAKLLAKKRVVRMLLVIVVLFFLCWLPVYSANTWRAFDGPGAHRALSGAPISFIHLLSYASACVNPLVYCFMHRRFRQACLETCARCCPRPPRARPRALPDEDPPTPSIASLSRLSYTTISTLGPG
Kind of assay: Human CCK-B receptor efficacy assay (AlphaScreen SureFire p-ERK). Conditions: read-out: hCCK-B R EC50.

The target of the next assay is T2, human GLP-1 R (Homo sapiens, UniProt P43220).
T2 construct: expressed in transfected cells
T2 sequence (P43220 24-463): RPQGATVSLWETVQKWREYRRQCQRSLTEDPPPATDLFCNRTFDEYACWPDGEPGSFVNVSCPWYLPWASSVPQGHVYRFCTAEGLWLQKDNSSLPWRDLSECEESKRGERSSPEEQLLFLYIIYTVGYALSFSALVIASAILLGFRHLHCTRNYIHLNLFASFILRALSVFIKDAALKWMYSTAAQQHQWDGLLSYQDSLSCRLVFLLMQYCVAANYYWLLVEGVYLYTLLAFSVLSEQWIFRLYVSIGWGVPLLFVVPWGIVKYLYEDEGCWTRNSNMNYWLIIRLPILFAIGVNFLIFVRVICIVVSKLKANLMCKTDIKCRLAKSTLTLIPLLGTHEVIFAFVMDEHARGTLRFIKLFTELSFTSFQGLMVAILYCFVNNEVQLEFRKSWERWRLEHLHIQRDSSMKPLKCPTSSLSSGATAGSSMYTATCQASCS
As to the kind of experiment: Human GLP-1 receptor efficacy assay (cAMP induction, FlashPlate). The following applies: read-out: hGLP-1 R EC50. The protocol:
On the day of analysis, growth medium was removed and the cells were washed once with 200 μl Tyrode buffer [Tyrode's Salts (9.6 g/l), 10 mM HEPES, pH 7.4]. […] The reaction was stopped by addition of 25 μl 0.5 M HCl and incubated on ice for 60 min.

The target of another assay is T3, mouse CCK-B R (Mus musculus, UniProt P56481).
T3 construct: expressed in transfected cells
T3 sequence (P56481 1-453): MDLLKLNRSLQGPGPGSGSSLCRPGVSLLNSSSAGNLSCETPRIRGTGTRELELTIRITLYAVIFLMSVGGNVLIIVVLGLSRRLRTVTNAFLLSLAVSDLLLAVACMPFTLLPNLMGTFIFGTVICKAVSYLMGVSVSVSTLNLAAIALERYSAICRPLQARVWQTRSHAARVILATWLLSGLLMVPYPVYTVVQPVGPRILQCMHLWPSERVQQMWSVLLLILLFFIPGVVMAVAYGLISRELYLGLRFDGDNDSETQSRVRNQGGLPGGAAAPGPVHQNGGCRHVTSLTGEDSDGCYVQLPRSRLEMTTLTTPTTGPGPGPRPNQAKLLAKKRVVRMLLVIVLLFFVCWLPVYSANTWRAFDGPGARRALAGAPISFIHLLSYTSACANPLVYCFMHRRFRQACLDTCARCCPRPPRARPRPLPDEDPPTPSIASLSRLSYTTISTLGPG
As to the kind of experiment: Mouse CCK-B receptor efficacy assay (AlphaScreen SureFire p-ERK). An excerpt:
CCK-B Receptor (CCK-B R) Efficacy Assay:
To test binding and activation of CCK-B R we produced stable cell lines expressing one of the human or mouse CCK receptors in a manner similar to that for production of the hGLP-1 R cell lines were generated (vide supra). In brief, we used HEK293 cells for transfection of the cDNA for human or mouse CCK-A R or CCK-B R [hCCK-A R (gene identity: L19315), hCCK-B R (NM_176875), mCCK-A R (NM_009827) and mCCK-B R (NM_007627)] all cloned into the transfection plasmid pIRESneo2dNGFR. The cells were grown according to standard protocol in growth medium and transfected with the plasmids using Lipofectamin (Invitrogen). The cells stably expressing CCK receptors were selected using G418 in the growth medium (only cells that have taken up and incorporated the cDNA expression plasmid survive) and propagated. Stocks of cells were frozen for later use.
In vitro effects of peptide conjugates of the invention were estimated by measuring p-ERK (using the AlphaScreen™ SureFire p-ERK assay) in HEK293 cells stably expressing the human and mouse CCK-B R (high-affinity Gastrin receptor), respectively. The Gastrin receptor efficacy assays (AlphaScreen™ SureFire p-ERK assay) were performed as follows:
The CCK-B R expressing cells in question were seeded at 20,000 cells/well in 100 μl growth medium [DMEM, 10% FCS, Penicillin (100 IU/ml), Streptomycin (100 μg/ml)] in a 96-well plate coated with poly-D-lysine. The cells were incubated in an incubator (37° C., 5% […]) for two days.
The growth medium was changed to 80 μl of serum-free medium [DMEM, Penicillin (100 IU/ml), Streptomycin (100 μg/ml)] per well, and incubation of the cells was continued for 19 hours in the incubator (37° C., 5% CO2).
• 1. After 19 hours, 20 μl of serum-free medium containing one of 5 different concentrations of peptide conjugate was added (performed in triplicate for each concentration), and the cells were incubated for 5 min. at room temperature. • 2. The stimulation medium was discarded by quickly turning the plate upside down, and 60 μl 1× lysis buffer (from the SureFire assay kit) was added per well. • 3. The plate was shaken on a plate-shaker for 5 min and then placed on ice. • 4. SureFire P-ERK assay: 4 μl of each supernatant was transferred to a 384 well proxiplate (Perkin Elmer). • 5. 4 μl of each of the two control lysates (unstimulated and stimulated) were added to the proxiplate in duplicate. • 6. […] 7 μl of the latter reaction buffer+activation buffer+beads per well were added in the proxiplate, the mix being resuspended carefully before addition to the wells. • 7. The plate was incubated for 2 hours in a dark box in a 22° C. incubator. • 8. The plate was analyzed on an Envision™ light-emission plate reader (Perkin-Elmer) using the appropriate reading program (Perkin-Elmer).

Protocol for human CCK-B R: The CCK-B R expressing cells in question were seeded at 20,000 cells/well in 100 μl growth medium [DMEM, 10% FCS, Penicillin (100 IU/ml), Streptomycin (100 μg/ml)] in a 96-well plate coated with poly-D-lysine. The cells were incubated in an incubator (37° C., 5% 002) for two days.

For the compound `CCCCCCCCCCCCCCCC(=O)N[C@@H](CCC(=O)NCCCC[C@H](NC(=O)CNC(=O)[C@H](CCCNC(=N)N)NC(=O)[C@@H](NC(=O)[C@H](CC(C)C)NC(=O)[C@H](Cc1c[nH]c2ccccc12)NC(=O)[C@H](C)NC(=O)[C@@H](NC(=O)[C@H](Cc1ccccc1)NC(=O)[C@H](CCC(=O)O)NC(=O)[C@H](CCCNC(=N)N)NC(=O)[C@H](C)NC(=O)[C@H](C)NC(=O)[C@H](CCC(N)=O)NC(=O)CNC(=O)[C@H](CCC(=O)O)NC(=O)[C@H](CC(C)C)NC(=O)[C@H](Cc1ccc(O)cc1)NC(=O)[C@H](CO)NC(=O)[C@H](CO)NC(=O)[C@@H](NC(=O)[C@H](CC(=O)O)NC(=O)[C@H](CO)NC(=O)[C@@H](NC(=O)[C@H](Cc1ccccc1)NC(=O)[C@@H](NC(=O)CNC(=O)[C@H](CCC(=O)O)NC(=O)CNC(=O)[C@@H](N)Cc1c[nH]cn1)[C@@H](C)O)[C@@H](C)O)C(C)C)[C@@H](C)CC)C(C)C)C(=O)NCC(=O)NCCOCCOCC(=O)NCCOCCOCC(=O)N[C@@H](Cc1ccc(O)cc1)C(=O)NCC(=O)N[C@@H](Cc1c[nH]c2ccccc12)C(=O)N[C@@H](CC(C)C)C(=O)N[C@@H](CC(=O)O)C(=O)N[C@@H](Cc1ccccc1)C(N)=O)C(=O)O` [Compound 110, [Arg26,34,Gly8,Lys(Hexadecanoyl-isoGlu)36]GLP-1(7-37)-Peg3-Peg3-[Leu4]Gastrin6] (H-HGEGTFTSDVSSYLEGQAAREFIAWLVRGK([γGlu-Palmitoyl])G[AEEA][AEEA]YGWLDF-NH2), the half-maximal effective concentration (EC50) at human CCK-B R (Table 3) was found to be 29 nM; on human GLP-1 R (Table 3), 0.12 nM. With `CCCCCCCCCCCCCCCC(=O)N[C@@H](CCC(=O)NCCCC[C@H](NC(=O)[C@H](C)NC(=O)[C@H](C)NC(=O)[C@H](CCC(N)=O)NC(=O)CNC(=O)[C@H](CCC(=O)O)NC(=O)[C@H](CC(C)C)NC(=O)[C@H](Cc1ccc(O)cc1)NC(=O)[C@H](CO)NC(=O)[C@H](CO)NC(=O)[C@@H](NC(=O)[C@H](CC(=O)O)NC(=O)[C@H](CO)NC(=O)[C@@H](NC(=O)[C@H](Cc1ccccc1)NC(=O)[C@@H](NC(=O)CNC(=O)[C@H](CCC(=O)O)NC(=O)C(C)(C)NC(=O)[C@@H](N)Cc1c[nH]cn1)[C@@H](C)O)[C@@H](C)O)C(C)C)C(=O)N[C@@H](CCC(=O)O)C(=O)N[C@@H](Cc1ccccc1)C(=O)N[C@H](C(=O)N[C@@H](C)C(=O)N[C@@H](Cc1c[nH]c2ccccc12)C(=O)N[C@@H](CC(C)C)C(=O)N[C@H](C(=O)N[C@@H](CCCNC(=N)N)C(=O)NCC(=O)N[C@@H](CCCNC(=N)N)C(=O)NCC(=O)NCCOCCOCC(=O)NCCOCCOCC(=O)N[C@@H](Cc1ccc(O)cc1)C(=O)NCC(=O)N[C@@H](Cc1c[nH]c2ccccc12)C(=O)N[C@@H](CC(C)C)C(=O)N[C@@H](CC(=O)O)C(=O)N[C@@H](Cc1ccccc1)C(N)=O)C(C)C)[C@@H](C)CC)C(=O)O` [Compound 111, [Aib8,Arg34,Lys(Hexadecanoyl-isoGlu)26]GLP-1(7-37)-Peg3-Peg3-[Leu4]Gastrin6], the values for the concentration giving a half-maximal response (EC50) at human CCK-B R (Table 3) and at human GLP-1 R (Table 3) were 59 nM and 0.088 nM, respectively.

For `CC[C@H](C)[C@H](NC(=O)[C@H](Cc1ccccc1)NC(=O)[C@H](CCC(=O)O)NC(=O)[C@H](CCCCN)NC(=O)[C@H](C)NC(=O)[C@H](C)NC(=O)[C@H](CCC(N)=O)NC(=O)CNC(=O)[C@H](CCC(=O)O)NC(=O)[C@H](CC(C)C)NC(=O)[C@H](Cc1ccc(O)cc1)NC(=O)[C@H](CO)NC(=O)[C@H](CO)NC(=O)[C@@H](NC(=O)[C@H](CC(=O)O)NC(=O)[C@H](CO)NC(=O)[C@@H](NC(=O)[C@H](Cc1ccccc1)NC(=O)[C@@H](NC(=O)CNC(=O)[C@H](CCC(=O)O)NC(=O)C(C)(C)NC(=O)[C@@H](N)Cc1c[nH]cn1)[C@@H](C)O)[C@@H](C)O)C(C)C)C(=O)N[C@@H](C)C(=O)N[C@@H](Cc1c[nH]c2ccccc12)C(=O)N[C@@H](CC(C)C)C(=O)N[C@H](C(=O)N[C@@H](CCCNC(=N)N)C(=O)NCC(=O)N[C@@H](CCCNC(=N)N)C(=O)NCC(=O)NCCOCCOCC(=O)NCCOCCOCC(=O)N[C@@H](Cc1ccc(O)cc1)C(=O)NCC(=O)N[C@@H](Cc1c[nH]c2ccccc12)C(=O)N[C@@H](CC(C)C)C(=O)N[C@@H](CC(=O)O)C(=O)N[C@@H](Cc1ccccc1)C(N)=O)C(C)C` [Compound 112, [Aib8,Arg34]GLP-1(7-37)-Peg3-Peg3-[Leu4]Gastrin6], the EC50 on human CCK-B R (Table 3) turned out to be 42 nM; on human GLP-1 R (Table 3) it was 0.043 nM. As for “H-HGEGTFTSELSKYLEEEAVRLFIEFLKWLDF-NH2 [Compound 96, [Glu9,Leu14,Phe25,Tyr13]Exendin-4(1-27)-[Leu2]Gastrin4]”, the EC50 at human CCK-B R (Table 2) stood at 211 nM; at human GLP-1 R (Table 2), 1.2 nM.

As for “H-HGEGTFTSELSKYLEEEAVRLFIEFLKYGWLDF-NH2 [Compound 101, [Glu9,Leu14,Phe25,Tyr13]Exendin-4(1-27)-[Leu4]Gastrin6]”, the EC50 at human CCK-B R (Table 2) was 30 nM; at human GLP-1 R (Table 2) it was 0.11 nM. Consider “QGPWLEEEEEAYGWLDF-NH2 [h[Gln1,Leu15]Gastrin17, reference compound]”, for which the EC50 at mouse CCK-B R came to 18.2 nM.
